Measured values as given in ChEMBL document CHEMBL1127416, “GC sequence specific recognition by an N-formamido, C-terminus-modified and imidazole-containing analogue of netropsin” (J Med Chem, 1994).

Key:
Type in all cases: nucleic-acid assay
Nucleic Acid [1] = experiment: The binding constants against calf thymus DNA; conditions: Bos taurus
Nucleic Acid [2] = experiment: The binding constants against poly(dA-dT) DNA
Nucleic Acid [3] = experiment: The binding constants against T4 coliphage DNA
Nucleic Acid [4] = experiment: The binding constants against […] DNA

Row | SMILES | Ka (Nucleic Acid [1]) [M⁻¹] | Ka (Nucleic Acid [2]) [M⁻¹] | Ka (Nucleic Acid [3]) [M⁻¹] | Ka (Nucleic Acid [4]) [M⁻¹]
1 | Cn1cc(NC(=O)c2cc(NC(=O)CNC(=N)N)cn2C)cc1C(=O)NCCC(=N)N | 1.87e+06 | – | – | –
2 | CN(C)CCn1cc(NC(=O)c2nc(NC=O)cn2C)nc1C(N)=O | 137000 | 65000 | 19000 | 105000
